Measurements as given in PubChem BioAssay (NCI).
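Grown in 96-well plates, cells were treated for 48 hours with each compound at five concentrations. Insufficient inhibition: endpoint recorded as highest concentration tested. The concentration for full growth arrest is given as TGI.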

Columns and labels:
Experiment in all cases: DTP human tumour cell line panel, 48 h
KM12 colon = test system: KM12 colon
SNB-75 CNS = test system: SNB-75 CNS
A549 NSCLC = test system: A549 NSCLC
SK-OV-3 ovarian = test system: SK-OV-3 ovarian
HCT-15 colon = test system: HCT-15 colon
UACC-257 melanoma = test system: UACC-257 melanoma
OVCAR-8 ovarian = test system: OVCAR-8 ovarian
SF-295 CNS = test system: SF-295 CNS
RXF 393 renal = test system: RXF 393 renal
M14 melanoma = test system: M14 melanoma
HOP-18 NSCLC = test system: HOP-18 NSCLC
SW-620 colon = test system: SW-620 colon
RPMI-8226 leukemia = test system: RPMI-8226 leukemia
DLD-1 colon = test system: DLD-1 colon
SK-MEL-5 melanoma = test system: SK-MEL-5 melanoma
RXF-631 renal = test system: RXF-631 renal
SN12C renal = test system: SN12C renal
OVCAR-3 ovarian = test system: OVCAR-3 ovarian
SNB-19 CNS = test system: SNB-19 CNS
LOX IMVI melanoma = test system: LOX IMVI melanoma
TK-10 renal = test system: TK-10 renal
HCT-116 colon = test system: HCT-116 colon
EKVX NSCLC = test system: EKVX NSCLC
COLO 205 colon = test system: COLO 205 colon
OVCAR-5 ovarian = test system: OVCAR-5 ovarian
U251 CNS = test system: U251 CNS
CAKI-1 renal = test system: CAKI-1 renal
HL-60(TB) leukemia = test system: HL-60(TB) leukemia
NCI-H23 lung = test system: NCI-H23 lung
NCI-H522 lung = test system: NCI-H522 lung
SK-MEL-2 melanoma = test system: SK-MEL-2 melanoma
UACC-62 melanoma = test system: UACC-62 melanoma
K-562 leukemia = test system: K-562 leukemia
SR leukemia = test system: SR leukemia
OVCAR-4 ovarian = test system: OVCAR-4 ovarian
ACHN renal = test system: ACHN renal
MALME-3M melanoma = test system: MALME-3M melanoma
NCI-H226 lung = test system: NCI-H226 lung
CCRF-CEM leukemia = test system: CCRF-CEM leukemia
IGROV1 ovarian = test system: IGROV1 ovarian
A498 renal = test system: A498 renal
SF-539 CNS = test system: SF-539 CNS
M19-MEL melanoma = test system: M19-MEL melanoma
HT29 colon = test system: HT29 colon
786-0 renal = test system: 786-0 renal
UO-31 renal = test system: UO-31 renal
DMS 114 small cell lung = test system: DMS 114 small cell lung
LXFL 529 NSCLC = test system: LXFL 529 NSCLC
SNB-78 CNS = test system: SNB-78 CNS
SK-MEL-28 melanoma = test system: SK-MEL-28 melanoma
MOLT-4 leukemia = test system: MOLT-4 leukemia
SF-268 CNS = test system: SF-268 CNS
HOP-92 NSCLC = test system: HOP-92 NSCLC
HOP-62 NSCLC = test system: HOP-62 NSCLC
NCI-H460 lung = test system: NCI-H460 lung
KM20L2 colon = test system: KM20L2 colon
HCC-2998 colon = test system: HCC-2998 colon
DMS 273 small cell lung = test system: DMS 273 small cell lung

COc1ccc2c(c1)c(=O)c1c(NCCN(C)C)ccc3nnn2c31
TGI (KM12 colon): 6.03 µM | TGI (SNB-75 CNS): 20.7 µM | TGI (A549 NSCLC): 12.8 µM | TGI (SK-OV-3 ovarian): 23.9 µM | TGI (HCT-15 colon): 16 µM | TGI (UACC-257 melanoma): 17 µM | TGI (OVCAR-8 ovarian): 13.6 µM | TGI (SF-295 CNS): 13.9 µM | TGI (RXF 393 renal): 10.5 µM | TGI (M14 melanoma): 16.2 µM | TGI (HOP-18 NSCLC): 7.35 µM | TGI (SW-620 colon): 9.11 µM | TGI (RPMI-8226 leukemia): 6.13 µM | TGI (DLD-1 colon): 20 µM | TGI (SK-MEL-5 melanoma): 14.1 µM | TGI (RXF-631 renal): 14 µM | TGI (SN12C renal): 19.7 µM | TGI (OVCAR-3 ovarian): 19.6 µM | TGI (SNB-19 CNS): 19.7 µM | TGI (LOX IMVI melanoma): 2.9 µM | TGI (TK-10 renal): 13.3 µM | TGI (HCT-116 colon): 13.4 µM | TGI (EKVX NSCLC): 17.9 µM | TGI (COLO 205 colon): 10 µM | TGI (OVCAR-5 ovarian): 19.6 µM | TGI (U251 CNS): 16.5 µM | TGI (CAKI-1 renal): 13.6 µM | TGI (HL-60(TB) leukemia): 5.51 µM | TGI (NCI-H23 lung): 13.1 µM | TGI (NCI-H522 lung): 15.8 µM | TGI (SK-MEL-2 melanoma): 19.7 µM | TGI (UACC-62 melanoma): 17.8 µM | TGI (K-562 leukemia): 15.5 µM | TGI (SR leukemia): 2.9 µM | TGI (OVCAR-4 ovarian): 8.17 µM | TGI (ACHN renal): 14.6 µM | TGI (MALME-3M melanoma): 17.2 µM | TGI (NCI-H226 lung): 9.44 µM | TGI (CCRF-CEM leukemia): 10.3 µM | TGI (IGROV1 ovarian): 17.4 µM | TGI (A498 renal): 21.7 µM | TGI (SF-539 CNS): 15.9 µM | TGI (M19-MEL melanoma): 20.8 µM | TGI (HT29 colon): 12.3 µM | TGI (786-0 renal): 14.8 µM | TGI (UO-31 renal): 13.3 µM | TGI (DMS 114 small cell lung): 19.4 µM | TGI (LXFL 529 NSCLC): 18 µM | TGI (SNB-78 CNS): 21.8 µM | TGI (SK-MEL-28 melanoma): 18.8 µM | TGI (MOLT-4 leukemia): 2.99 µM | TGI (SF-268 CNS): 14.9 µM | TGI (HOP-92 NSCLC): 10.8 µM | TGI (HOP-62 NSCLC): 15.4 µM | TGI (NCI-H460 lung): 8.54 µM | TGI (KM20L2 colon): 14.7 µM | TGI (HCC-2998 colon): 17.8 µM

CC[N+](C)(CC)CC(C)(C)C(=O)/C=C/c1ccc(/C=C/C(=O)C(C)(C)C[N+](C)(CC)CC)cc1
TGI (KM12 colon): > 100 µM | TGI (SNB-75 CNS): > 100 µM | TGI (A549 NSCLC): > 100 µM | TGI (SK-OV-3 ovarian): > 100 µM | TGI (HCT-15 colon): > 100 µM | TGI (UACC-257 melanoma): > 100 µM | TGI (OVCAR-8 ovarian): > 100 µM | TGI (SF-295 CNS): > 100 µM | TGI (RXF 393 renal): > 100 µM | TGI (M14 melanoma): > 100 µM | TGI (SW-620 colon): > 100 µM | TGI (RPMI-8226 leukemia): > 100 µM | TGI (DLD-1 colon): > 100 µM | TGI (SK-MEL-5 melanoma): > 100 µM | TGI (RXF-631 renal): > 100 µM | TGI (SN12C renal): > 100 µM | TGI (OVCAR-3 ovarian): > 100 µM | TGI (SNB-19 CNS): > 100 µM | TGI (LOX IMVI melanoma): > 100 µM | TGI (TK-10 renal): > 100 µM | TGI (HCT-116 colon): > 100 µM | TGI (EKVX NSCLC): > 100 µM | TGI (COLO 205 colon): > 100 µM | TGI (OVCAR-5 ovarian): > 100 µM | TGI (U251 CNS): > 100 µM | TGI (CAKI-1 renal): > 100 µM | TGI (HL-60(TB) leukemia): > 100 µM | TGI (NCI-H23 lung): > 100 µM | TGI (NCI-H522 lung): > 100 µM | TGI (UACC-62 melanoma): > 100 µM | TGI (K-562 leukemia): > 100 µM | TGI (OVCAR-4 ovarian): > 100 µM | TGI (ACHN renal): > 100 µM | TGI (MALME-3M melanoma): > 100 µM | TGI (NCI-H226 lung): > 100 µM | TGI (CCRF-CEM leukemia): > 100 µM | TGI (DMS 273 small cell lung): > 100 µM | TGI (IGROV1 ovarian): > 100 µM | TGI (A498 renal): > 100 µM | TGI (SF-539 CNS): > 100 µM | TGI (M19-MEL melanoma): > 100 µM | TGI (HT29 colon): > 100 µM | TGI (786-0 renal): > 100 µM | TGI (UO-31 renal): > 100 µM | TGI (DMS 114 small cell lung): > 100 µM | TGI (LXFL 529 NSCLC): > 100 µM | TGI (SNB-78 CNS): > 100 µM | TGI (SK-MEL-28 melanoma): > 100 µM | TGI (MOLT-4 leukemia): > 100 µM | TGI (SF-268 CNS): > 100 µM | TGI (HOP-92 NSCLC): > 100 µM | TGI (HOP-62 NSCLC): > 100 µM | TGI (NCI-H460 lung): > 100 µM | TGI (KM20L2 colon): > 100 µM | TGI (HCC-2998 colon): > 100 µM
